According to patent US20250234862A1, “FUNGICIDAL COMPOSITION FOR PREVENTING AND CONTROLLING ROOT ROT DISEASES IN CROPS CAUSED BY FUSARIUM SPP” (Institute Of Plant Protection And Agro-Products Safety, …, priority 2024, published 2025):

Experiments:
[1] = test system: wheat stem base rot disease; experiment: Field control experiment on wheat stem base rot disease (seed coating); type: in vivo, wheat variety Quanmai 725
Procedure: Experiments employed 20% cyclobutrifluram·ipconazole suspension seed coating agent in example 1 of formulation implementation and 45% cyclobutrifluram suspension seed coating agent, 20% ipconazole suspension seed coating agent, and 15% carbendazim·thiram suspension seed coating agent. Experimental site was located at Liu Lake Farm in Suixi County using the wheat variety “Quanmai 725”. The agent was applied to seeds at a 1:1000 ratio by weight for seed coating. Additionally, the agent was diluted into a solution, with a final volume of 1 liter of solution used to treat 100 kg of wheat seeds, which were then dried in the shade before direct planting. Disease investigations were conducted during the tillering stage and after the growth of wheat entered the jointing-booting stage (Table 3).

[2] = test system: Fusarium pseudogramineaqum; experiment: Indoor toxicity determination, mycelial growth assay on PDA medium; type: cell-based; conditions: mycelial growth inhibition, 25° C., wheat Fusarium pseudogramineaqum
Procedure: (§1) A detailed analysis of the fungicidal properties of cyclobutrifluram and ipconazole was conducted. First, the EC50 ([…]) of the two single compounds (hereinafter referred to as agents) was determined. According to the EC50 of the two single agents, the combination ratio of the two agents was set according to the Wadley method, and based on the Wadley synergistic coefficient SR value.
(§2) The experimental targets were Fusarium pseudogramineaqum and Fusarium solani. The cyclobutrifluram and ipconazole were selected, and the PDA solid medium were selected, and the required liquid chemicals plates were prepared at about 18 ml per plate. The mycelium blocks with 5 mm diameter were prepared at the edge of pre cultured colonies using a sterilized punch, transferred to different culture media plates, and cultivated at 25° C. The experiment used the mycelial growth assay method to prepare drug containing culture media according to different treatments. The mycelium blocks with 5 mm diameter were prepared at the edge of pre cultured colonies using a sterilized punch and transferred to different culture media plates with different drug contents. The colony diameter was measured using the cross over method, and the colony diameter (mm) was measured. The growth inhibition rate was calculated using the following formula: […]
(§3) The mycelial growth inhibition rate was converted to the inhibition probability value (y), and the drug concentration was converted to the concentration logarithm (x). The concentration logarithm was used as the x-axis and the probability value was used as the y-axis to create a toxicity regression line. The toxicity regression equation of a single agent of cyclobutrifluram and ipconazole and a mixed agent of cyclobutrifluram and ipconazole against the pathogen were obtained, and the EC50 value and correlation coefficient r were calculated.
(§4) According to the Wadley method to evaluate the interaction of the mixed agent, the calculation formula is as follows: […]
(§5) Among them, a and b are the proportions of each component in the mixed agent, and the SR value is used to analyze the mixing effect. If SR≤0.5, the mixed agent of the two drugs has an antagonistic effect; if SR=0.5-1.5, the mixed agent of the two drugs has an additive effect; if SR≥1.5, the mixed agent of the two drugs has a synergistic effect.

Fusarium solani = experiment: as above; type: cell-based; conditions: mycelial growth inhibition, 25° C., soybean Fusarium solani
Procedure: as §1, §2, §3, §4, §5

Row | SMILES | control effect on wheat stem base rot disease (in words) [1] | EC50 [2] | EC50 (Fusarium solani)
1 | O=C(NC1CCC1c1ccc(Cl)cc1Cl)c1cccnc1C(F)(F)F (stereo not drawn) [Cyclobutrifluram] | significant control effect | 0.3033 ppm | 0.3774 ppm
2 | CC(C)C1CCC(Cc2ccc(Cl)cc2)C1(O)Cn1cncn1 (stereo not drawn) [Ipconazole, (1RS,2SR,5RS;1RS,2SR,5SR)-2-(4-chlorobenzyl)-5-isopropyl-1-(1H-1,2,4-triazol-1-ylmethyl)cyclopentanol] | significant control effect | 0.1506 ppm | 0.1808 ppm
